Experiments:
Assay type in all cases: cell-based
[1] = tested on: cells; test: Sub-G1 apoptosis test (DNA fragmentation, fluorescent DNA intercalator), Example 60; settings: for Activity (sub-Gl): apoptosis, DNA fragmentation by fluorescence; for pro-apoptotic activity (in words): conclusion from the tests of Example 60
Description: The biological tests on activity (Sub-G1) relate to measurement of apoptosis. For this purpose, a fluorescent tracer, a DNA intercalator, makes it possible to display the fragmentation of the DNA. This fragmentation of the DNA results from the induction of the apoptotic phenomenon in the cells. The cells are incubated in the presence of various concentrations of the compounds presented above. The measurement of the apoptosis in the cells is monitored by measuring the fluorescence, thus making it possible to determine the activity of the compounds in […]. The activity tests (sub-G1) on certain compounds are presented below.

[2] = tested on: cells; test: Cell proliferation by multiplexed flow cytometry (dilution of a fluorescent tracer), Example 61
Description: (§1) The activities are measured by multiplexed flow cytometry tests, by coupling the measurement of apoptosis and cell proliferation. The cell proliferation is measured by monitoring the dilution of a specific fluorescent tracer during the cell divisions: • the cells are incubated in the presence of several concentrations of compounds, then • the measurements of apoptosis and cell proliferation are made simultaneously by the flow cytometry technique; specimen dose/response curves for the action of the compounds on apoptosis and on cell proliferation are obtained.

[3] = tested on: cells; test: Apoptosis (sub-G1) by multiplexed flow cytometry, Example 61
Description: as §1

[4] = conclusion from the tests of Example 61

| Compound | Activity (sub-Gl) [1] [µM] | pro-apoptotic activity (in words) [1] | Activity (prolif at 24 h) ([2]; cell proliferation at 24 h, flow cytometry) [µM] | anti-proliferative activity (in words) [2, 4] | Activity (sub-Gl) ([3]; apoptosis, multiplexed flow cytometry) [µM] | pro-apoptotic activity (in words) [3, 4] |
| --- | --- | --- | --- | --- | --- | --- |
| CC1=C(CNC(=O)C(C)N)C(=O)c2ccccc2C1=O.Cl [Example 17, 2-methyl-3-(L-alaninyl-aminomethyl)-1,4-naphthoquinone chlorhydrate] | 13.3 | pro-apoptotic activity |  |  |  |  |
| CC1=C(CNC(=O)C(N)CO)C(=O)c2ccccc2C1=O.Cl [Example 18, 2-methyl-3-(L-serinyl-aminomethyl)-1,4-naphthoquinone chlorhydrate] | 11.8 | pro-apoptotic activity |  |  |  |  |
| CC1=C(CNC(=O)C(N)C(C)C)C(=O)c2ccccc2C1=O.Cl [Example 19, 2-methyl-3-(D-valinyl-aminomethyl)-1,4-naphthoquinone chlorhydrate] | 12 | pro-apoptotic activity |  |  |  |  |
| CC1=C(CNC(=O)C(N)C(C)O)C(=O)c2ccccc2C1=O [Example 20, 2-methyl-3-(L-threoninyl-aminomethyl)-1,4-naphthoquinone chlorohydrate] | 12.2 | pro-apoptotic activity |  |  |  |  |
| CC1=C(CCNC(=O)CN)C(=O)c2ccccc2C1=O.Cl [Example 26, 2-methyl-3-(glycinyl-aminoethyl)-1,4-naphthoquinone chlorohydrate] |  |  | 12.3 | anti-proliferative activity | 11.8 | pro-apoptotic |
